Test results as given in ChEMBL document CHEMBL1201862, “PubChem BioAssay data set” (2004).
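These data come from cells grown in 96-well plates and exposed to compound for 48 hours at five concentrations. GI50 = concentration required for 50% inhibition of growth.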 The source made the active and inactive calls. Rule as the data show it: active = GI50 up to about 1.1 µM and inactive = higher.

Experiments:
Experiment in all cases: DTP human tumour cell line panel, 48 h
786-0 = system: 786-0
COLO 205 = system: COLO 205
HCT-116 = system: HCT-116
HCT-15 = system: HCT-15
HOP-62 = system: HOP-62
KM12 = system: KM12
MDA-MB-435 = system: MDA-MB-435
MDA-N = system: MDA-N
NCI-H23 = system: NCI-H23
NCI-H460 = system: NCI-H460
NCI/ADR-RES = system: NCI/ADR-RES
OVCAR-5 = system: OVCAR-5
RPMI-8226 = system: RPMI-8226
SF-268 = system: SF-268
SF-539 = system: SF-539
SK-MEL-2 = system: SK-MEL-2
SN12C = system: SN12C
SNB-19 = system: SNB-19
U-251 = system: U-251
NCI-H522 = system: NCI-H522

Compound | GI50 (786-0) | GI50 (COLO 205) | GI50 (HCT-116) | GI50 (HCT-15) | GI50 (HOP-62) | GI50 (KM12) | GI50 (MDA-MB-435) | GI50 (MDA-N) | GI50 (NCI-H23) | GI50 (NCI-H460) | GI50 (NCI/ADR-RES) | GI50 (OVCAR-5) | GI50 (RPMI-8226) | GI50 (SF-268) | GI50 (SF-539) | GI50 (SK-MEL-2) | GI50 (SN12C) | GI50 (SNB-19) | GI50 (U-251) | GI50 (NCI-H522)
CC1(c2cccs2)CC(c2cccs2)=C(C#N)C(=C(C#N)C#N)N1 (stereo not drawn) | 17.3 µM (inactive) | 16.9 µM (inactive) | 17.3 µM (inactive) | 16.4 µM | 19.9 µM (inactive) | 17.1 µM (inactive) | 17.4 µM (inactive) | 16.7 µM (inactive) | 19.4 µM (inactive) | 20.2 µM (inactive) | 21.3 µM (inactive) | 21.5 µM (inactive) | 17.5 µM (inactive) | 18.2 µM (inactive) | 25.2 µM (inactive) | 17.8 µM (inactive) | 18.7 µM (inactive) | 18.7 µM (inactive) | 15.8 µM (inactive) | –
CC1C2CC(C/C2=N/O)C1(C)C (stereo not drawn) | > 100 µM (inactive) | > 100 µM (inactive) | > 100 µM (inactive) | – | > 100 µM (inactive) | > 100 µM (inactive) | > 100 µM (inactive) | > 100 µM (inactive) | > 100 µM (inactive) | > 100 µM (inactive) | – | > 100 µM (inactive) | – | > 100 µM (inactive) | > 100 µM (inactive) | – | > 100 µM (inactive) | > 100 µM (inactive) | > 100 µM (inactive) | > 100 µM (inactive)
O=C(c1ccccc1)c1c(C(F)(F)F)[n+]([O-])c2cc(F)c(F)cc2[n+]1[O-] | 0.525 µM (active) | 3.86 µM (inactive) | 0.156 µM (active) | 0.49 µM | 1.25 µM (inactive) | 1.07 µM (active) | 1.53 µM (inactive) | – | 0.211 µM (active) | 3.21 µM (inactive) | 0.367 µM (active) | 1.51 µM (inactive) | 0.679 µM (active) | 1.32 µM (inactive) | 0.838 µM (active) | 1.79 µM (inactive) | – | 4.05 µM (inactive) | 0.377 µM (active) | 0.746 µM (active)
O=C1Nc2ccccc2/C1=N/Nc1nc(-c2ccc(Cl)c(Cl)c2)cs1 | > 100 µM (inactive) | 29.9 µM (inactive) | 90.6 µM (inactive) | 6.24 µM | > 100 µM (inactive) | 29.6 µM (inactive) | 72.1 µM (inactive) | 47 µM (inactive) | 46.1 µM (inactive) | 17.6 µM (inactive) | > 100 µM (inactive) | > 100 µM (inactive) | – | – | 73.5 µM (inactive) | 43 µM (inactive) | > 100 µM (inactive) | > 100 µM (inactive) | 77.4 µM (inactive) | –
O=[N+]([O-])c1nccn1CC1OC(n2ccnc2[N+](=O)[O-])C(O)C(O)C1O (stereo not drawn) | > 100 µM (inactive) | > 100 µM (inactive) | > 100 µM (inactive) | – | > 100 µM (inactive) | > 100 µM (inactive) | – | > 100 µM (inactive) | > 100 µM (inactive) | > 100 µM (inactive) | – | > 100 µM (inactive) | > 100 µM (inactive) | – | – | > 100 µM (inactive) | – | > 100 µM (inactive) | > 100 µM (inactive) | –
CC(C)(C)n1[nH]c(=O)n(C(C)(C)C)c1=O | > 100 µM (inactive) | > 100 µM (inactive) | > 100 µM (inactive) | > 100 µM | – | > 100 µM (inactive) | > 100 µM (inactive) | > 100 µM (inactive) | > 100 µM (inactive) | > 100 µM (inactive) | – | > 100 µM (inactive) | > 100 µM (inactive) | > 100 µM (inactive) | > 100 µM (inactive) | > 100 µM (inactive) | > 100 µM (inactive) | > 100 µM (inactive) | > 100 µM (inactive) | –
CC1(C)Oc2ccc(Cl)cc2C12CC2 | 16.7 µM (inactive) | 14 µM (inactive) | 14.7 µM (inactive) | 17.1 µM | 18.2 µM (inactive) | 17.7 µM (inactive) | 15.5 µM (inactive) | 17.8 µM (inactive) | 20.1 µM (inactive) | 17.8 µM (inactive) | 18.4 µM (inactive) | 17.4 µM (inactive) | 16.1 µM (inactive) | 16.6 µM (inactive) | 31.5 µM (inactive) | 16 µM (inactive) | 18.8 µM (inactive) | 16.5 µM (inactive) | 15.3 µM (inactive) | –
C=C1C(=O)O[C@H]2C[C@@H]1[C@@H](O)[C@H](O)[C@@H](C)CCCC(C)=CCC[C@@]2(C)O | 15.8 µM (inactive) | 7.03 µM (inactive) | 16.1 µM (inactive) | 22.9 µM | 24.3 µM (inactive) | 30.9 µM (inactive) | 17.7 µM (inactive) | 9.86 µM (inactive) | 18.1 µM (inactive) | 23 µM (inactive) | – | 19.1 µM (inactive) | 5.05 µM (inactive) | 22.6 µM (inactive) | 15.2 µM (inactive) | 21.6 µM (inactive) | 17 µM (inactive) | > 100 µM (inactive) | 24.7 µM (inactive) | 4.24 µM (inactive)
